Reference: ChEMBL document CHEMBL1142841, “Synthesis and evaluation of anti-HIV activity of isatin beta-thiosemicarbazone derivatives” (Bioorg Med Chem Lett, 2005)

Columns and labels:
[1] = tested on: CCRF-CEM; experiment: Concentration required to reduce the viability of mock-infected human CEM cells; type: functional
[2] = tested on: Human immunodeficiency virus; experiment: Effective concentration required to inhibit HTLV-III B induced cytopathicity in human CEM cells; type: functional, organism-based; details: Human immunodeficiency virus 1, CCRF-CEM
[3] = tested on: Human immunodeficiency virus; experiment: Ratio of CC50 required to reduce the viability of mock-infected human CEM cells to EC50 required to inhibit HTLV-III B induced cytopathicity in that cells; type: functional, Human immunodeficiency virus 1, CCRF-CEM

EC50 [2] | Structure (SMILES) | CC50 [1] | Selectivity index [3]
2.62 µM | CCN(CC)C(=S)N/N=C1\C(=O)N(CN2CCN(c3cccc(C(F)(F)F)c3)CC2)c2ccccc21 | 44.9 µM | 17.14
> 12.8 µM | CCN(CC)C(=S)N/N=C1\C(=O)N(CN2CCN(c3ncccn3)CC2)c2ccccc21 | 12.8 µM | <1
> 13.3 µM | CCN(CC)C(=S)N/N=C1\C(=O)N(CN2CC(C)OC(C)C2)c2ccccc21 (stereo not given) | 13.3 µM | <1
3.12 µM | CCN(CC)C(=S)N/N=C1\C(=O)N(CN2CCN(c3cc4c(cc3F)c(=O)c(C(=O)O)cn4CC)CC2)c2ccccc21 | 37.5 µM | 12.02
> 8.29 µM | CCN(CC)C(=S)N/N=C1\C(=O)N(CN(Cc2ccccc2)Cc2ccccc2)c2ccccc21 | 8.29 µM | <1
> 2.86 µM | CCN(CC)C(=S)N/N=C1\C(=O)N(CN(C)C)c2ccccc21 | 2.86 µM | <1
3.4 µM | CCN(CC)C(=S)N/N=C1\C(=O)N(CN2CCN(Cc3ccccc3)CC2)c2ccccc21 | 14 µM | 4.12
> 14.5 µM | CCN(CC)C(=S)N/N=C1\C(=O)N(CN2CCN(c3ccc(F)cc3)CC2)c2ccccc21 | 14.5 µM | <1
> 11.9 µM | CCN(CC)C(=S)N/N=C1\C(=O)N(CN2CCN(c3ccc([N+](=O)[O-])cc3)CC2)c2ccccc21 | 11.9 µM | <1
0.78 µM | O=C1Nc2ccc(Cl)cc2[C@@](C#CC2CC2)(C(F)(F)F)O1 [EFAVIRENZ] | > 200 µM | >256
